Measurements taken from patent US20250041286A1, “CANCER TREATMENT USING KETOTIFEN IN COMBINATION WITH A CHECKPOINT INHIBITOR” (Materia Therapeutics Inc., priority 2021, published 2025).

Tests used:
[1] = test system: MCA205 cells; experiment: Re-challenge of long-term survivors with MCA205 cells; format: in vivo, mouse; conditions: re-challenge with 2.5×10^5 MCA205 cells s.c., 80 days after resection of primary tumors
Description: Since doxorubicin has potential to establish favorable immunogenic conditions within the TME, which could affect the efficacy of immunotherapy, it was investigated if this immune response is preserved against rechallenge of long-term survivors with the same cell line. Mice were considered long-term survivors if no tumor was detected 80 days after surgical resection of MCA205 primary tumors. Five long-term survivors from each treatment group were further re-challenged with 2.5×10^5 MCA205 cells injected subcutaneously into the flank region. Cells were prepared in 50 μl of PBS. Naïve mice were implanted in parallel as controls.

[2] = test system: MCA205 tumors; experiment: Ketotifen pretreatment with doxorubicin / anti-PD-L1, tumor growth; format: in vivo, mouse; conditions: anti-PD-L1 10 mg/kg, doxorubicin 5 mg/kg i.p. days 7, 10, 13, ketotifen 10 mg/kg daily
Description: Daily ketotifen continued until completion of doxorubicin-anti-PD-L1 combination treatment.

[3] = test system: NIH3T3 cells; experiment: Myofibroblast differentiation in co-culture, αSMA and collagen I immunofluorescence; format: cell-based, murine
Method: (§1) Given that both MCs and fibroblasts are present in the TME, the consequences of MC activation on myofibroblasts was explored using a co-culture assay in which murine MC/9 MCs and NIH3T3 myofibroblasts were separated by a transwell chamber with micropores that only allowed chemical communication (FIG. 13A). In this system, degranulation efficiency was determined by measuring the concentration of β-hexosaminidase (β-hex) in the supernatant. MC degranulation was induced through exposure to compound 48/80 (C48/80), which binds to the MRGPRB2 receptor (the orthologue of the human G-protein-coupled receptor MRGPRX2). […] Co-cultures treated with a vehicle control and Triton X-100 were used as internal assay control to evaluate background and maximum β-hex release, respectively. Transforming growth factor (TGF)-β1 was used as a fibroblast activator due to its capacity to induce a myofibroblast phenotype of the NIH3T3 cells. MC/9 cells were cultivated with NIH3T3 cells for 24 hours and then treated with either ketotifen or TGFβ for additional 24 hours in low serum medium, followed by a 30 minute sensitization with C48/80.
To further explore the MC-fibroblast interaction, the differentiation process of NIH3T3 cells in the co-culture system was monitored by assaying levels of αSMA and collagen I, which are two markers of the myofibroblast phenotype, by immunofluorescence staining (FIG. 13C, FIG. 13D, and FIG. 13E).

[4] = test system: murine MC/9 MCs; experiment: MC/9 - NIH3T3 transwell co-culture, mast cell degranulation by β-hexosaminidase release; format: cell-based; conditions: 24 hours treatment, then 30 minute sensitization with C48/80
Method: as §1

Molecule	tumor development after re-challenge (mice out of five long-term survivors per group) [1]	tumor growth (relative growth, tumor mass day 16) [2]	αSMA and collagen I protein expression ([3]; TGFβ alone)	αSMA and collagen I protein expression ([3]; TGFβ together with activated MCs)	MC degranulation (β-hex release) [4]
COc1cccc2c1C(=O)c1c(O)c3c(c(O)c1C2=O)C[C@@](O)(C(=O)CO)C[C@@H]3O[C@H]1C[C@H](N)[C@H](O)[C@H](C)O1 [doxorubicin]	four mice	Neither anti-PD-L1 nor doxorubicin monotherapies affected tumor growth			
TGFβ: fibroblast activator inducing a myofibroblast phenotype of the NIH3T3 cells			no change was observed	significant increase	did not affect MC degranulation
